Laboratory results taken from patent publication US4820873A, “Pyrene derivatives” (priority 1984, dated 1989).
Where a name gives a salt, the structure may show the parent alone.

What was measured:
LD20 in the P388/0 test = assay type: in vivo, CD2-F1 mice; set-up: LD20: dose in mg/kg body weight; conditions: intraperitoneal, days 1, 5, 9, doses are on a mg/kg basis; for MTD: mouse, in vivo, ip, read-out: highest nontoxic dose (LD20 column, values in parentheses; LD20 was not determined)
Method: CD2-F1 mice, of the same sex, weighing 20±3 g, are used for this test. Control and test animals are injected intraperitoneally with a suspension of ~10^6 viable P388/0 tumor cells on day 0. In each test, several dose levels which bracket the LD20 of the compound are evaluated; each dose level group contains 6 animals. The test compounds are prepared either in physiologic saline containing 0.05% Tween 80 or distilled water containing 5% dextrose and are administered intraperitoneally on days 1, 5, and 9 relative to tumor implant. Doses are on a mg/kg basis according to individual animals' body weights. The day of death for each animal is recorded, the median identified for each group and the ratios of median survival time for treated (T)/control (C) groups are calculated. The criterion for activity is T/C×100≥120%.

Trichomonas vaginalis = assay: Antiprotozoal testing, Trichomonas vaginalis (in vitro); assay type: cell-based; conditions: Stenton or Modified Diamond's medium, read-out: Result (screen code, inhibition); for inhibition at 40 µg/mL: 40 mg/L
From the text: Antiprotozoal testing against Trichomonas vaginalis was done using methods outlined by R. M. Michaels in Advances in Chemotherapy, 3, 39-108 (1968).
(Stenton or Modified Diamond's medium)

[1] = test system: Candida albicans (CN1863); assay: Antifungal screening, Candida albicans, broth and agar dilution assays; assay type: cell-based; conditions: Medium: Wellcotest sensitivity test agar plus 7% lysed horse blood
From the text: Antifungal testing against Candida albicans (CN1863) was done with slight modifications using a combination of broth and agar dilution assays as outlined in Laboratory Handbook of Medical Mycology, Chapter 6, pages 441-446, M. R. McGinnis, Academic Press, New York, NY, 1980.
Medium: Wellcotest* sensitivity test agar plus 7% lysed horse blood.

[2] = test system: Mycoplasma smegmatis (S3264); assay: Antibacterial screening, Mycoplasma smegmatis, agar dilution assay; assay type: cell-based
From the text: (§1) Antibacterial testing against Mycoplasma smegmatis (S3264) and Streptococcus pyogens (CN10) was done with slight modifications using standard agar dilution assays as outlined in Manual of Clinical Microbiology, Second Ed., E. H. Lennette, E. H. Spaulding and J. P. Truant Eds., American Society for Microbiology, Washington, DC, 1974.

Eimeria tenella = assay: Antiprotozoal screening, Eimeria tenella (in vitro); assay type: cell-based; conditions: read-out: Result (screen code, inhibition); for inhibition at 5 µg/mL: 5 mg/L
From the text: Antiprotozoal testing against Eimeria tenella was done using methods outlined in V. S. Latter and D. Wilson, Parasitology 79, 169 (1979).

[3] = test system: Streptococcus pyogenes (CN10); assay: Antibacterial testing, Streptococcus pyogenes, agar dilution assay; assay type: cell-based
From the text: as §1

[4] = test system: Nippostrongylus brasiliensis (Immature - free living stages); assay: Anthelmintic screening, Nippostrongylus brasiliensis; assay type: cell-based
From the text: Anthelmintic testing against Nippostrongylus brasiliensis was done using methods as outlined in D. C. Jenkins, R. Armitage, and T. S. Carrington, Zetschrift fur Parasitenkunde 63, 261-269 (1980).

[5] = test system: Brugia pahangi microfilaria; assay: Screening against Brugia pahangi microfilaria (in vitro); assay type: cell-based; conditions: for inhibition at 12.5 µg/mL: 12.5 mg/L
From the text: Anthelmintic testing against Brugia pahangi was done using methods outlined in D. A. Denham et al., Transactions of the Royal Society of Tropical Medicine and Hygiene 73, 673-676 (1979).

B16 cells = assay: Melanotic Melanoma B16 test; assay type: in vivo, B6C3-F1 mice; conditions: dosing as in P388/0 test, active if ≥125%
From the text: Methods for evaluating the antitumor activity of these compounds are essentially those used in the Tumor Panel by the Development Therapeutics Program, Division of Cancer Treatment, National Cancer Institute, A. Goldin, et al., Methods in Cancer Research, Vol. XVI, p. 165, Academic Press (1979). Some modifications in dose level and schedule have been made to increase the testing efficiency.
B6C3-F1 mice of the same sex, weighing 20+3 g, are used for this test. A suspension of B16 cells is prepared from a non-necrotic portion of solid tumor tissue obtained from a passage mouse. One gram of tumour is homogenized in 9 mL ice-cold Earle's salts solution and filtered through 1000 mesh screen to remove debris. 0.5 mL of the resulting brei is injected intraperitoneally into each animal. Dosing is carried out as in the P388/0 and L1210 tests. Days of death are recorded for a 60 day period, and T/C ratio calculated as in the P388/0 and L1210 tests. The criterion for activity is T/C×100≥125%.

LD50 Tests = conditions: in vivo; IP single dose - CD1 Male Mouse
From the text: |(IP single dose - CD1 Male Mouse)

Herpes simplex 1/vero = Herpes simplex 1/vero plaque inhibition screen; assay type: cell-based
From the text: Antiviral testing against Herpes simplex 1/vero was done using plaque inhibition methods as outlined in P. Collins and D. J. Bauer, Proc. N.Y. Acad. Sci. 284, 49 (1977) and by plaque reduction methods as outlined in P. Collins and D. J. Bauer, J. Antimicrobiol Chemotherapy 3, Supplement A, 73, (1977). The column headings labeled Score, Toxicity, and Zone of Inhibition refer to the plaque inhibition screen while the IC50 heading to the plaque reduction screen.

[6] = read-out: Result (screen code, inhibition)

SMILES | LD20 (LD20 in the P388/0 test) | MIC [1] [µg/mL] | MIC [2] [µg/mL] | MIC [3] [µg/mL] | MIC [4] [µg/mL] | LD50 (LD50 Tests) [mg/kg] | other results
C[C@H](O)[C@@](C)(CO)NCc1ccc2ccc3cccc4ccc1c2c34 (relative stereo) [Example 20G, (+-)(2R*,3S*)-2-((1-Pyrenylmethyl)amino)-2-methyl-1,3-butanediol hydrochloride] | 125 | – | – | – | – | – | –
CC(C)(CO)NCc1ccc2ccc3cccc4ccc1c2c34 [Example 2A, 2-methyl-2-((1-pyrenylmethyl)amino)propanol hydrochloride] | – | 10 | ≤ 5 | 10 | 10 | – | inhibition at 40 µg/mL (Trichomonas vaginalis): 51 to 75%; LD20 (LD20 in the P388/0 test; hydrochloride): 170; inhibition at 5 µg/mL (Eimeria tenella; in vitro): 26 to 50%; MIC [5]: 3.1 µg/mL; inhibition at 3.1 µg/mL ([5]; 3.1 mg/L, read-out: Result (screen code, inhibition)): 76 to 100%
CC(C)(CO)NCc1ccc2ccc3cccc4ccc1c2c34 [Example 2B, 2-Methyl-2-((1-pyrenylmethyl)amino)propanol] | 450 | – | – | – | – | – | –
OCCCNCc1ccc2ccc3cccc4ccc1c2c34 [Example 3, 3-((1-pyrenylmethyl)amino)propanol hydrochloride] | 450 | 30 | < 5 | 10 | 1 | – | inhibition at 6.25 µg/mL (Trichomonas vaginalis; 6.25 mg/L): 76 to 100%; MIC [5]: 0.78 µg/mL; inhibition at 0.78 µg/mL ([5]; 0.78 mg/L, read-out: Result (screen code, inhibition)): 76 to 100%
CC(C)C(CO)NCc1ccc2ccc3cccc4ccc1c2c34 (stereo not shown) [Example 4, 3-Methyl-2-((1-pyrenylmethyl)amino)butanol hydrochloride] | 450 | – | – | – | 10 | – | inhibition at 12.5 µg/mL [5, 6]: 26 to 50%
CCC(CO)(CO)NCc1ccc2ccc3cccc4ccc1c2c34 [Example 5A, 2-Ethyl-2-((1-pyrenylmethyl)amino)-1,3-propanediol hydrochloride] | 225 | 50 | 3 | 3 | 100 | 160 | T/C × 100% Excluding 60 day Survivors (B16 cells; 225 mg/kg): +159%; inhibition at 40 µg/mL (Trichomonas vaginalis): 51 to 75%
CCC(CO)NCc1ccc2ccc3cccc4ccc1c2c34 (stereo not shown) [Example 6, 2-((1-Pyrenylmethyl)amino)butanol hydrochloride] | 450 | 50 | 10 | – | – | 350 | Score (Herpes simplex 1/vero): -2 (26-50% inhibition); inhibition at 40 µg/mL (Trichomonas vaginalis): 76 to 100%
CC(CO)NCc1ccc2ccc3cccc4ccc1c2c34 (stereo not shown) [Example 7, 2-((1-Pyrenylmethyl)amino)propanol hydrochloride] | 600 | 50 | ≤ 5 | – | – | – | –
CC(O)CNCc1ccc2ccc3cccc4ccc1c2c34 (stereo not shown) [Example 8, 1-((1-pyrenylmethyl)amino)-2-propanol hydrochloride] | 600 | 50 | 10 | – | – | – | –
CCC(O)CNCc1ccc2ccc3cccc4ccc1c2c34 (stereo not shown) [Example 9, 1-((1-Pyrenylmethyl)amino)-2-butanol hydrochloride] | – | 10 | 10 | 10 | 50 | 350 | inhibition at 40 µg/mL (Trichomonas vaginalis): 26 to 50%
OCC(CO)(CO)NCc1ccc2ccc3cccc4ccc1c2c34 [Example 10, 2-Hydroxymethyl-2-((1-pyrenylmethyl)amino)-1,3-propanediol hydrochloride] | 215 | > 50 | > 50 | 5 | ≥ 50 | 160 | T/C × 100% Excluding 60 day Survivors (B16 cells; 150 mg/kg): +133%; inhibition at 0.37 µg/mL (Eimeria tenella): 76 to 100%
OCC(CO)NCc1ccc2ccc3cccc4ccc1c2c34 [Example 11, 2-((1-Pyrenylmethyl)amino)-1,3-propanediol hydrochloride] | 450 | 50 | 10 | 5 | ≥ 50 | 250 | inhibition at 40 µg/mL (Trichomonas vaginalis): 76 to 100%; inhibition at 5 µg/mL (Eimeria tenella; in vitro): 76 to 100%
CC(C)(O)CNCc1ccc2ccc3cccc4ccc1c2c34 [Example 12, 2-(((1-Pyrenylmethyl)amino)methyl)-2-propanol hydrochloride] | – | > 50 | > 50 | – | – | – | inhibition at 5 µg/mL (Eimeria tenella; in vitro): 76 to 100%; inhibition at 12.5 µg/mL [5, 6]: 26 to 50%
OCCNCc1ccc2ccc3cccc4ccc1c2c34 [Example 13, 2-((1-Pyrenylmethyl)amino)ethanol hydrochloride] | 220 | 10 | 5 | 5 | 50 | 160 | inhibition at 5 µg/mL (Eimeria tenella; in vitro): 26 to 50%
CC(O)CCNCc1ccc2ccc3cccc4ccc1c2c34 (stereo not shown) [Example 14, 4-((1-Pyrenylmethyl)amino)-2-butanol hydrochloride] | – | 50 | 10 | ≤ 5 | 50 | 130 | inhibition at 0.31 µg/mL (Eimeria tenella; 0.31 mg/L, in vitro): 26 to 50%
CC(=O)OCC(COC(C)=O)(COC(C)=O)NCc1ccc2ccc3cccc4ccc1c2c34 [Example 15, 2-Acetoxymethyl-1,3,-O-diacetyl-2-((1-pyrenylmethyl)amino)-1,3-propanediol] | – | > 50 | ≤ 10 | – | – | – | MTD (LD20 in the P388/0 test): 500 mg/kg
CCC(COC(C)=O)(COC(C)=O)NCc1ccc2ccc3cccc4ccc1c2c34 [Example 16, 2-Ethyl-2-((1-pyrenylmethyl)amino)-1,3-propanediol diacetate] | – | – | – | – | – | – | Score (Herpes simplex 1/vero): -4 (76-100% inhibition); MTD (LD20 in the P388/0 test): 675 mg/kg
CC(=O)OCC(C)(COC(C)=O)NCc1ccc2ccc3cccc4ccc1c2c34 [Example 18, 2-methyl-2-(1-pyrenylmethyl)amino)-1,3-propanediol diacetate] | – | – | ≤ 10 | 30 | – | – | Score (Herpes simplex 1/vero): -3 (51-75% inhibition); Zone of Inhibition (Herpes simplex 1/vero): 30; MTD (LD20 in the P388/0 test): 300 mg/kg
CC(CO)(CO)NCc1cc2cccc3ccc4cccc1c4c32 [Example 19, 2-methyl-2-((4-pyrenylmethyl)amino)-1,3-propanediol hydrochloride.1/4H2 O] | 45 | 30 | 10 | – | – | – | –
CCOCC(CO)(CO)NCc1ccc2ccc3cccc4ccc1c2c34 [Example 21C, 2-Ethoxymethyl-2-((1-pyrenylmethyl)amino)-1,3-propanediol hydrochloride 1/3H2 O] | 225 | – | – | – | – | – | –
COCC(C)(CO)NCc1ccc2ccc3cccc4ccc1c2c34 (stereo not shown) [Example 22D, 3-methoxy-2-methyl-2-((1-pyrenylmethyl)amino)-1-propanol methanesulfonate.1/3H2 O] | 135 | – | – | – | – | – | –
O[C@@H]1CCC[C@H](O)[C@H]1NCc1ccc2ccc3cccc4ccc1c2c34 [Example 23B, (1α,2β,3α)-2-((1-Pyrenylmethyl)amino)-1,3-cyclohexanediolmethanesulfonate] | 180 | – | – | – | – | – | –
